{"source": "patent US11242331B2", "about": "(University of Florida Research Foundation, Incorporated, priority 2016, dated 2022)", "key": {"[1]": {"tested_on": "Staphylococcus aureus", "assay": "Bacterial growth inhibition assay, S. aureus", "assay_type": "cell-based", "details": "16-18 h, OD600", "experimental": "(§1) Each biological screen was performed in three independent experiments at concentrations of 1, 10, 100 or 200 μM. All hit compounds identified in primary screens were then evaluated in follow-up assays to validate/confirm the initial screening results.\nBacterial growth inhibition was determined by screening all yohimbine-derived compounds at 200 μM in 96-well plates. Briefly, 2 μL of a 20 mM DMSO stock solution (test compound) was added to 98 μL of media (tryptic soy broth with 0.5% glucose for S. aureus; LB for A. baumannii) before each well was treated with an additional 100 μL of inoculated media (giving ˜10^5 colony forming units per milliliter) prepared from a fresh log-phase culture (OD600 of 0.8 to 1.0). The inoculated 96-well plates were then covered and placed in a humidifying chamber and allowed to incubate at 37° C. for 16-18 hours. Bacterial growth was then determined using a spectrophotometer plate reader (OD600) to quantify turbidity (growth) in each treated and untreated well of the 96-well plates. Turbidity for treated wells were compared to a 1% v/v DMSO vehicle and recorded in the screening heat map. All compounds were tested in three independent experiments."}, "[2]": {"tested_on": "endogenous Nrf2 target gene, NQO1", "assay": "RT-qPCR validation of ARE inhibition in MDA-MB-231-ARE-Luc cells", "assay_type": "cell-based, human", "details": "24 h, relative to 0.5% DMSO", "experimental": "(§2) The library compounds were then assessed for the potential to modulate the activity of another key transcription factor, NF-E2-related factor 2 (Nrf2), which acts on the antioxidant response element (ARE) in the promoter region upstream of antioxidant and phase II detoxification enzymes. Activators of the Nrf2-ARE pathway have potential as cancer preventive agents because of their ability to increase antioxidant status of the cell and protect from oxidative damage that could lead to cancer. Inhibitors in turn may increase the susceptibility of cancer cells to chemotherapeutic agents and overcome drug resistance since Nrf2 is commonly activated in cancer.^44 To screen for Nrf2 inhibitors, MDA-MB-231 breast cancer cells (a model for invasive, triple negative breast cancer) stably transfected with the ARE-luciferase reporter were used, where the promoter region is derived from the human NQO1 gene.^45 As a control, cell viability was monitored to ensure the identification of false positives in the reporter gene assay that are a result of concomitant reduced cell viability.\nThe antioxidant response element (ARE) expression induction assay with LNCaP cells was performed as previously described.^6 The ARE expression inhibition assay was performed with MDA-MB-231-ARE-Luc cells that stably express the ARE reporter construct.7 MDA-MB-231-ARE-Luc cells were seeded in 96 well plates at 1.5×10^4 cells/well in DMEM medium (GIBCO) containing 10% FCS and 1% antibiotic-antimycotic (GIBCO), and allowed to attach overnight. Test compounds were screened in triplicate at three concentrations (100, 10 and 1 μM) and ARE expression was quantified on the EnVision plate reader (Perkin-Elmer) using the BriteLite plus luciferase reporter assay system (Perkin-Elmer) after 24 h exposure in a humidified incubator at 37° C. with 5% CO2. […]\nIn order to validate the ARE modulatory effects of compounds from the primary screen, the expression of the target Nrf2 target gene, Ngo1, was quantified by RT-qPCR. […]"}, "[3]": {"tested_on": "parental HCT116 and HCT116 HIF-1α−/−HIF-2α−/− cells", "assay": "Cell viability assay in isogenic HCT116 lines (HIF-dependent anticancer activity)", "assay_type": "cell-based, human", "details": "parental HCT116 vs HCT116 HIF-1α/HIF-2α double knockout, 48 h, MTT"}, "[4]": {"tested_on": "RAW264.7 cells", "assay": "RAW264.7 cell viability (MTT)", "assay_type": "cell-based, mouse", "details": "24 h", "experimental": "Human colorectal cancer cell lines HCT116, HCT116^HIF-1α−/−HIF-2α−/−, and HCT 116^WT KRAS were cultured in Dulbecco's Modified Eagle Medium (DMEM) supplemented with 10% fetal bovine serum and maintained in 5% CO2 at 37° C. The cells were seeded in a 96-well plate (10,000 cells/well) and treated with different concentrations of test compounds or solvent control (0.5% DMSO) after 24 h. Cell viability was measured 48 h following treatment with MTT dye using the manufacturer's protocol (Promega).\n(§3) Mouse macrophage, RAW264.7 cells were cultured in Dulbecco's Modified Eagle Medium (DMEM) supplemented with 10% fetal bovine serum and maintained in 5% C02 at 37° C. Cells were seeded in 96-well plates (20,000 cells/well) and after 24 h pretreated for 1 hour with different concentrations of test compounds in triplicate or solvent control (0.5% DMSO) before adding LPS (1 μg/mL in PBS). Nitric oxide (NO) production in culture supernatant was assessed after 24 h following treatment by measuring nitrite concentration, an oxidative product of NO. Nitrite production was measured by mixing […] of culture supernatant with […] of Griess reagent (Promega), absorbance measured at 540 nm and NO % calculated against a calibration curve generated for fresh sodium nitrite standard. Cells were used for measuring viability (24 h) as above."}, "[5]": {"tested_on": "NO production in RAW264.7 cells", "assay": "Nitric oxide assay (Griess reagent)", "assay_type": "cell-based, mouse", "details": "RAW264.7 macrophage cells, LPS, 24 h", "experimental": "as §1, §3"}, "[6]": {"tested_on": "endogenous NQO1", "assay": "RT-qPCR validation of ARE activation in LNCaP cells", "assay_type": "cell-based, human", "details": "for levels of endogenous NQO1 (ARE activation): 24 h, RT-qPCR, relative to 0.5% DMSO; for potency compared with positive control sulforaphane: NQO1 RT-qPCR, sulforaphane 10 μM", "experimental": "(§4) As a control, LNCaP viability was monitored in parallel (FIG. 11E).\n(§5) The antioxidant response element (ARE) expression induction assay with LNCaP cells was performed as previously described.^6 The ARE expression inhibition assay was performed with MDA-MB-231-ARE-Luc cells that stably express the ARE reporter construct.7 MDA-MB-231-ARE-Luc cells were seeded in 96 well plates at 1.5×10^4 cells/well in DMEM medium (GIBCO) containing 10% FCS and 1% antibiotic-antimycotic (GIBCO), and allowed to attach overnight. Test compounds were screened in triplicate at three concentrations (100, 10 and 1 μM) and ARE expression was quantified on the EnVision plate reader (Perkin-Elmer) using the BriteLite plus luciferase reporter assay system (Perkin-Elmer) after 24 h exposure in a humidified incubator at 37° C. with 5% CO2. In both cell line assays the luciferase expression for compound-treated wells was expressed relative the 0.5% DMSO carrier solvent control. A parallel viability assay was performed with the Cell Titer 96 Non-radioactive Cell Proliferation Assay (Promega) and the data expressed in the same manner as above. Compounds that inhibited ARE expression 20% more than viability, or induced ARE expression more than three-fold were re-tested in a seven-point, two-fold serial dilution dose-response assay (100-1.56 μM).\nIn order to validate the ARE modulatory effects of compounds from the primary screen, the expression of the target Nrf2 target gene, Ngo1, was quantified by RT-qPCR. LNCaP and MDA-MB-231-ARE-Luc cells were seeded in 6 well plates at 5×10^5 and 7×10^5 cells per well, in EMEM and DMEM media containing 10% FCS and 1% antibiotic-antimycotic (GIBCO) respectively. Cells were allowed to attach overnight before the addition of test compounds. After 24 h exposure in a humidified incubator at 37° C. with 5% CO2, RNA was isolated using the RNeasy kit (Qiagen) and quantified using a NanoDrop spectrophotometer (Thermo Fisher Scientific). cDNA was synthesized from 2 μg of RNA using Oligo(dT)12-18 (Life Technologies) primer and SuperScript II (Thermo Fisher Scientific) on the Mastercycler Gradient PCR machine (Eppendorf) for 1 h at 42° C. following a 10 min denaturation at 65° C. Gene expression was quantified on the 7300 Real Time PCR machine (Applied Biosystems) using TaqMan Gene Expression Master Mix (Thermo Fisher Scientific) and probes for the target gene Nqo1 (Hs02512143_s1, Thermo Fisher Scientific) and reference gene ActB (Hs99999903_m1, Thermo Fisher Scientific). Real time PCR was performed with the following thermal cycle: 1. 50° C. for 2 min; 2. 95° C. for 10 min; 3. 40 cycles of 95° C. for 15 sec followed by 60° C. for 1 min."}, "[7]": {"tested_on": "Nrf2-ARE pathway (ARE-luciferase reporter)", "assay": "ARE luciferase assay in LNCaP cells (activation)", "assay_type": "cell-based, human", "details": "24 h, screened at 100, 10 and 1 μM", "experimental": "as §1, §4\nas §5, with “Compounds that inhibited ARE expression 20% more than viability, or induced ARE expression more than three-fold were re-tested in a seven-point, two-fold serial dilution dose-response assay (100-1.56 μM).” left out"}, "[8]": {"tested_on": "Nrf2-ARE pathway (ARE-luciferase reporter)", "assay": "ARE luciferase assay in MDA-MB-231-ARE-Luc cells (inhibition)", "assay_type": "cell-based, human", "details": "24 h, screened at 100, 10 and 1 μM", "experimental": "as §1\nas §2, with “viability. […]” for “viability.”"}}, "data": [{"smiles": "COC(=O)[C@@H]1[C@H]2C[C@H](OCc3ccc(Br)cc3)c3[nH]c4ccccc4c3CCN(C#N)C[C@@H]2CC[C@@H]1O", "note": "[Y6q]", "values": [{"measurement": "inhibition at 200 µM", "setting": "[1]", "value": "~20", "unit": "%"}, {"measurement": "transcription of endogenous NQO1", "setting": "[2]", "value": "downregulated NQO1 transcription"}]}, {"smiles": "COC(=O)[C@@H]1[C@H]2C[C@@H]3N(CC[C@@]34C(=O)N(Cc3cccc(OC)c3)c3ccccc34)C[C@@H]2CC[C@@H]1OCc1cccc(OC)c1", "note": "[Y7g]", "values": [{"measurement": "differential (HIF-dependent) antiproliferative activity", "setting": "[3]", "value": "most selective antiproliferative agent"}, {"measurement": "cell viability", "setting": "[4]", "value": "almost unaffected"}, {"measurement": "inhibition of nitric oxide (NO) production", "setting": "[5]", "value": "most selective anti-inflammatory activity"}]}, {"smiles": "COC(=O)[C@@H]1[C@H]2C[C@@H]3N(CC[C@@]34C(=O)N(c3ccc(Oc5ccccc5)cc3)c3ccccc34)C[C@@H]2CC[C@@H]1O", "note": "[Y3e]", "values": [{"measurement": "transcription of endogenous NQO1", "setting": "[2]", "value": "downregulated NQO1 transcription"}]}, {"smiles": "CC(=O)N1CCc2c([nH]c3ccccc23)[C@H](OCc2ccccc2)C[C@H]2[C@@H](CC[C@H](O)[C@@H]2CO)C1", "note": "[Y6u]", "values": [{"measurement": "levels of endogenous NQO1 (ARE activation)", "setting": "[6]", "value": "active at lower concentrations"}, {"measurement": "potency compared with positive control sulforaphane", "setting": "[6]", "value": "only slightly less potent than the positive control"}]}, {"smiles": "COC(=O)[C@@H]1[C@H]2C[C@H]3c4[nH]c5ccccc5c4CCN3C[C@@H]2CC[C@@H]1O", "note": "[yohimbine 1, yohimbine]", "values": [{"measurement": "ARE activation (luciferase reporter)", "setting": "[7]", "value": "does not possess any of these activities"}, {"measurement": "ARE inhibition (luciferase reporter)", "setting": "[8]", "value": "does not possess any of these activities"}, {"measurement": "inhibition of nitric oxide (NO) production", "setting": "[5]", "value": "does not possess any of these activities"}]}, {"smiles": "OC[C@@H]1[C@H]2C[C@@H]3OCc4ccccc4-n4c3c(c3ccccc34)CCNC[C@@H]2CC[C@@H]1O", "note": "[Y5b]", "values": [{"measurement": "levels of endogenous NQO1 (ARE activation)", "setting": "[6]", "value": "active at lower concentrations"}, {"measurement": "potency compared with positive control sulforaphane", "setting": "[6]", "value": "only slightly less potent than the positive control"}]}, {"smiles": "COC(=O)[C@@H]1[C@H]2C[C@@H](c3[nH]c4ccccc4c3CCn3cc(-c4cccc(Cl)c4)nn3)N(C#N)C[C@@H]2CC[C@@H]1O", "note": "[Y1f]", "values": [{"measurement": "inhibition at 200 µM", "setting": "[1]", "value": "~20", "unit": "%"}, {"measurement": "transcription of endogenous NQO1", "setting": "[2]", "value": "downregulated NQO1 transcription"}]}]}
